# Reference: patent US11530235B2, “Compounds and methods used in assessing mono-PARP activity” (Oregon Health & Science University, priority 2015, dated 2022)
# Assays:
# [1] = biological target: T1, WT-PARP15cat (Homo sapiens, UniProt Q460N3); test: In vitro SRPK2 MARylation with WT-PARP15cat; assay type: biochemical
# T1 sequence (Q460N3 482-678 limits assumed): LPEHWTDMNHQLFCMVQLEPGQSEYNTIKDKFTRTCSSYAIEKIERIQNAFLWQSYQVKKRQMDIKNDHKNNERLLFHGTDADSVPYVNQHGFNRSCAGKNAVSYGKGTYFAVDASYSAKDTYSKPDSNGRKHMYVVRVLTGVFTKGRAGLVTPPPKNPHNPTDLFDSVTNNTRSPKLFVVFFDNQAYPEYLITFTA
# [2] = biological target: T2, GFP-WT-PARP10 (Homo sapiens, UniProt Q53GL7); test: Lysate labeling, HEK 293T cells expressing WT-PARP10; conditions: HEK 293T lysate, WT-PARP10, 100 μM, click conjugation with biotin-azide
# T2 sequence (Q53GL7 1-1025): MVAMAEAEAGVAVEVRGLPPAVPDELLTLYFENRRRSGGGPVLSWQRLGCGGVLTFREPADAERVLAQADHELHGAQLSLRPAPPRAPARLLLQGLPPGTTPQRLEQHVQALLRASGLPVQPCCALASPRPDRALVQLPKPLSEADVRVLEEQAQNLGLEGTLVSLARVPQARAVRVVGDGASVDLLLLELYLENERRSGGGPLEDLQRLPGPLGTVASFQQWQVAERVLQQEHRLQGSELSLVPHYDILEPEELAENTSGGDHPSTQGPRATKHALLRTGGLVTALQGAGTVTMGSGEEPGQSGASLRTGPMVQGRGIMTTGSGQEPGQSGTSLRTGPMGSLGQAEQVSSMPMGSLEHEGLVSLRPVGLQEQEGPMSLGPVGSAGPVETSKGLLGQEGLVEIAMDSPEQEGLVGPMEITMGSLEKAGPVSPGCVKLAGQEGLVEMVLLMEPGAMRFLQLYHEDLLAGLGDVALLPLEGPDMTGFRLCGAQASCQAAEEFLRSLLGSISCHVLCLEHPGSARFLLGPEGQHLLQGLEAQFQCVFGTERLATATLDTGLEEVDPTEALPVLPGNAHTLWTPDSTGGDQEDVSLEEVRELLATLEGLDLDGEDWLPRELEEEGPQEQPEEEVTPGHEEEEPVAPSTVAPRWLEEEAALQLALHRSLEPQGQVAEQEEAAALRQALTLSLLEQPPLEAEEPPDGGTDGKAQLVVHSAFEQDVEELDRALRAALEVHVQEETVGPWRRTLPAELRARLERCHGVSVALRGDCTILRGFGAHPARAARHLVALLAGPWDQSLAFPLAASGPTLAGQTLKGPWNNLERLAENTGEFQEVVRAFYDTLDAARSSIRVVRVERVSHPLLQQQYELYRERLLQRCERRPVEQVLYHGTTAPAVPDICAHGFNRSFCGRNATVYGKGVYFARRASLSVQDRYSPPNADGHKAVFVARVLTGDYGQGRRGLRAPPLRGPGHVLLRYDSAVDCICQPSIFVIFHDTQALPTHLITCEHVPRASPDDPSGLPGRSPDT
# [3] = biological target: T3, WT-PARP11 (Homo sapiens, UniProt Q9NR21); test: Lysate labeling, HEK 293T cells expressing WT-PARP11; conditions: HEK 293T lysate
# T3 sequence (Q9NR21 1-331 isoform Q9NR21-1): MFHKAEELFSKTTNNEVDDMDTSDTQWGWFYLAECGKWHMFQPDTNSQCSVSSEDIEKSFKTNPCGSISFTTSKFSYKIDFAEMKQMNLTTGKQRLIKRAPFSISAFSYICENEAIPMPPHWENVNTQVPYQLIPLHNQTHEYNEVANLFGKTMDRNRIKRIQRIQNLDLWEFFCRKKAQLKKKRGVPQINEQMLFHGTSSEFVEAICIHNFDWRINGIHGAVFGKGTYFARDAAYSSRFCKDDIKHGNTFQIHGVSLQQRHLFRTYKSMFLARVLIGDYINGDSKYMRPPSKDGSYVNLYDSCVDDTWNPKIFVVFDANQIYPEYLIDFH
# [4] = biological target: T4, WT-PARP10cat (Homo sapiens, UniProt Q53GL7); test: SRPK2 MARylation assay with WT-PARP10cat; conditions: 100 μM NAD+ analogue, 2 hours at 30° C., in-gel fluorescence
# T4 sequence (Q53GL7 806-1025 limits assumed): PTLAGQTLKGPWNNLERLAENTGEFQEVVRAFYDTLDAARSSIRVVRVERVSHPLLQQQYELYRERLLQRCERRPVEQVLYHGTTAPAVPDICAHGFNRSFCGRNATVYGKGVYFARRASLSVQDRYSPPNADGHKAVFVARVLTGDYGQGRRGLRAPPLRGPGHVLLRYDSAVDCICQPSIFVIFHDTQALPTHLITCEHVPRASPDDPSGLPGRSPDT
# [5] = biological target: L926A-PARP10cat (Homo sapiens, UniProt Q53GL7, L926A); test: SRPK2 MARylation assay with L926A-PARP10cat; conditions: relative to WT-PARP10cat; 100 μM NAD+ analogue, in-gel fluorescence
# L926A-PARP10cat, sequence (Q53GL7 806-1025 L926A): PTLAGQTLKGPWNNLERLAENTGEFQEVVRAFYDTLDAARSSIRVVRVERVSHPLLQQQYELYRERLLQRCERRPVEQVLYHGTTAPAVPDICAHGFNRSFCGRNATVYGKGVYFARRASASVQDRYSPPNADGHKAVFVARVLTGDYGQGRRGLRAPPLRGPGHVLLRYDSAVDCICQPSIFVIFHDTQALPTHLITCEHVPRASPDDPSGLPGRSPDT
Compound,use as substrate by WT-PARP15cat to MARylate SRPK2 [1],labeling of lysate proteins (streptavidin-HRP) [2],labeling of lysate proteins (streptavidin-HRP) [3],use as substrate to mediate SRPK2 MARylation by WT-PARP10cat [4],use as substrate to mediate SRPK2 MARylation by L926A-PARP10cat [5]
5-benzyl-6-a-NAD+ [5-Bn-6-a-NAD+],did not use,low-level of background labeling,Minimal background labeling,–,–
C#CCNc1ncnc2c1ncn2[C@@H]1O[C@H](COP(=O)(O)OP(=O)([O-])OC[C@H]2O[C@@H]([n+]3cccc(C(N)=O)c3)[C@H](O)[C@@H]2O)[C@@H](O)[C@H]1O [6-a-NAD+],–,–,–,used as a substrate,to a lesser extent
